Laboratory results: patent US8097628B2, “Compounds” (Glaxo Group Limited, priority 2008, dated 2012)
≈ marks a conversion by molar mass, not a printed value. Where a name gives a salt, the structure may show the parent alone. Read-outs that look alike come from different tables or passages of the source.

Test system: Mycobacterium tuberculosis H37Rv
Experiment: Mycobacterium tuberculosis H37Rv Inhibition Assay
Assay type: cell-based
[1] = ATCC 25618 / H37Rv, H37Rv strain (ATCC25618), Middlebrook 7H9, resazurin fluorescence, read-out: MtB MIC
[2] = H37Rv inhibition assay, read-out: MIC value

SMILES | MIC [1] [µg/mL] | MIC [2] [µg/mL] | MIC (ATCC 25618 / H37Rv, read-out: MtB MIC) [µg/mL]
O=c1ccc2ncc(=O)n3c2n1CC3CN1CCC(NCc2ccc([N+](=O)[O-])cc2)CC1 (stereo not shown) [Example 38, 2-[(4-{[(4-nitrophenyl)methyl]amino}-1-piperidinyl)methyl]-1,2-dihydro-3H,8H-2a,5,8a-triazaacenaphthylene-3,8-dione] | 0.273 (≈ 0.625 µM) | – | –
Cl.O=c1ccc2ccc(=O)n3c2n1C[C@H]3CN1CCC(NCc2ccc(Cl)c(Cl)c2)CC1 [Example 31, (1R)-1-[(4-{[(3,4-dichlorophenyl)methyl]amino}-1-piperidinyl)methyl]-1,2-dihydro-4H,9H-imidazo[1,2,3-ij]-1,8-naphthyridine-4,9-dione hydrochloride] | 0.019 | – | –
Cl.O=c1ccc2ncc(=O)n3c2n1C[C@H]3CN1CCC(NCc2ccc(F)c(C(F)(F)F)c2)CC1 [Example 4, (2R)-2-{[4-({[4-fluoro-3-(trifluoromethyl)phenyl]methyl}amino)-1-piperidinyl]methyl}-1,2-dihydro-3H,8H-2a,5,8a-triazaacenaphthylene-3,8-dione hydrochloride] | 0.04 | – | –
Cc1ccc(CNC2CCN(CC3Cn4c(=O)ccc5ncc(=O)n3c54)CC2)cc1C (stereo not shown) [Example 25, 2-[(4-{[(3,4-dimethylphenyl)methyl]amino}-1-piperidinyl)methyl]-1,2-dihydro-3H,8H-2a,5,8a-triazaacenaphthylene-3,8-dione] | 0.262 (≈ 0.625 µM) | – | –
O=c1cnc2ccc(=O)n3c2n1C[C@H]3CN1CCC(NCc2ccc(C(F)(F)F)nc2)CC1 [Example 11, (1R)-1-{[4-({[6-(trifluoromethyl)-3-pyridinyl]methyl}amino)-1-piperidinyl]methyl}-1,2-dihydro-3H,8H-2a,5,8a-triazaacenaphthylene-3,8-dione] | 0.14 (≈ 0.304 µM) | – | –
O=c1ccc2ncc(=O)n3c2n1CC3CN1CCC(NCc2ccc(C(F)(F)F)nn2)CC1 (stereo not shown) [Example 17, 2-{[4-({[6-(trifluoromethyl)-3-pyridazinyl]methyl}amino)-1-piperidinyl]methyl}-1,2-dihydro-3H,8H-2a,5,8a-triazaacenaphthylene-3,8-dione] | 0.865 (≈ 1.87 µM) | – | –
Cc1ccc(CNC2CCN(CC3Cn4c(=O)ccc5ncc(=O)n3c54)CC2)cc1[N+](=O)[O-] (stereo not shown) [Example 23, 2-[(4-{[(4-methyl-3-nitrophenyl)methyl]amino}-1-piperidinyl)methyl]-1,2-dihydro-3H,8H-2a,5,8a-triazaacenaphthylene-3,8-dione] | 0.036 (≈ 0.0799 µM) | – | –
Cc1ncc(CNC2CCN(C[C@@H]3Cn4c(=O)ccc5ccc(=O)n3c54)CC2)cc1F [Example 63, (1R)-1-[(4-{[(5-fluoro-6-methyl-3-pyridinyl)methyl]amino}-1-piperidinyl)methyl]-1,2-dihydro-4H,9H-imidazo[1,2,3-ij]-1,8-naphthyridine-4,9-dione] | – | > 1 | –
Cc1ncc(CNC2CCN(C[C@@H]3Cn4c(=O)cnc5ccc(=O)n3c54)CC2)cc1Br [Example 55, (1R)-1-[(4-{[(5-bromo-6-methyl-3-pyridinyl)methyl]amino}-1-piperidinyl)methyl]-1,2-dihydro-3H,8H-2a,5,8a-triazaacenaphthylene-3,8-dione hydrochloride] | – | – | 0.04
O=c1ccc2ncc(=O)n3c2n1CC3CN1CCC(NCc2cncc(Br)c2)CC1 (stereo not shown) [Example 41, 2-[(4-{[(5-bromo-3-pyridinyl)methyl]amino}-1-piperidinyl)methyl]-1,2-dihydro-3H,8H-2a,5,8a-triazaacenaphthylene-3,8-dione] | 0.884 (≈ 1.88 µM) | – | –
Cc1cc(CNC2CCN(CC3Cn4c(=O)ccc5ncc(=O)n3c54)CC2)cnc1C (stereo not shown) [Example 14, 2-[(4-{[(5,6-dimethyl-3-pyridinyl)methyl]amino}-1-piperidinyl)methyl]-1,2-dihydro-3H,8H-2a,5,8a-triazaacenaphthylene-3,8-dione] | 2.1 (≈ 5 µM) | > 1 | –
CCc1ncc(CNC2CCN(C[C@@H]3Cn4c(=O)ccc5ccc(=O)n3c54)CC2)cc1F [Example 54, (1R)-1-[(4-{[(6-ethyl-5-fluoro-3-pyridinyl)methyl]amino}-1-piperidinyl)methyl]-1,2-dihydro-4H,9H-imidazo[1,2,3-ij]-1,8-naphthyridine-4,9-dione] | 2.19 (≈ 5 µM) | – | –
O=c1ccc2ncc(=O)n3c2n1CC3CN1CCC(NCc2ccc(Br)cn2)CC1 (stereo not shown) [Example 40, 2-[(4-{[(5-bromo-2-pyridinyl)methyl]amino}-1-piperidinyl)methyl]-1,2-dihydro-3H,8H-2a,5,8a-triazaacenaphthylene-3,8-dione] | 1.18 (≈ 2.5 µM) | > 1 | –
Cc1cc(CNC2CCN(C[C@@H]3Cn4c(=O)ccc5ncc(=O)n3c54)CC2)ccc1F.Cl [Example 6, (2R)-2-[(4-{[(4-fluoro-3-methylphenyl)methyl]amino}-1-piperidinyl)methyl]-1,2-dihydro-3H,8H-2a,5,8a-triazaacenaphthylene-3,8-dione hydrochloride] | 0.29 | – | –
Cc1cc(CNC2CCN(CC3Cn4c(=O)ccc5ncc(=O)n3c54)CC2)ccc1Cl (stereo not shown) [Example 34, 2-[(4-{[(4-chloro-3-methylphenyl)methyl]amino}-1-piperidinyl)methyl]-1,2-dihydro-3H,8H,2a,5,8a-triazaacenaphthylene-3,8-dione] | 0.069 (≈ 0.157 µM) | – | –
Cl.N#Cc1ncc(CNC2CCN(C[C@@H]3Cn4c(=O)ccc5ccc(=O)n3c54)CC2)cc1Cl [Example 50, 3-chloro-5-{[(1-{[(1R)-4,9-dioxo-1,2-dihydro-4H,9H-imidazo[1,2,3-ij]-1,8-naphthyridin-1-yl]methyl}-4-piperidinyl)amino]methyl}-2-pyridinecarbonitrile dihydrochloride] | 0.082 | – | –
Cc1ncc(CNC2CCN(C[C@@H]3Cn4c(=O)cnc5ccc(=O)n3c54)CC2)cc1Cl.Cl [Example 8, (1R)-1-[(4-{[(5-chloro-6-methyl-3-pyridinyl)methyl]amino}-1-piperidinyl)methyl]-1,2-dihydro-3H,8H-2a,5,8a-triazaacenaphthylene-3,8-dione hydrochloride] | 0.08 | – | –
Cc1ncc(CNC2CCN(CC3Cn4c(=O)ccc5ncc(=O)n3c54)CC2)cc1Cl (stereo not shown) [Example 26, 2-[(4-{[(5-chloro-6-methyl-3-pyridinyl)methyl]amino}-1-piperidinyl)methyl]-1,2-dihydro-3H,8H-2a,5,8a-triazaacenaphthylene-3,8-dione] | 0.069 (≈ 0.156 µM) | – | –
Cl.O=c1ccc2ncc(=O)n3c2n1C[C@H]3CN1CCC(NCc2ccc(Cl)c(Cl)c2)CC1 [Example 3, (2R)-2-[(4-{[(3,4-dichlorophenyl)methyl]amino}-1-piperidinyl)methyl]-1,2-dihydro-3H,8H-2a,5,8a-triazaacenaphthylene-3,8-dione] | 0.04 | – | –
Cc1cc(CNC2CCN(CC3Cn4c(=O)ccc5ncc(=O)n3c54)CC2)sc1Br (stereo not shown) [Example 24, 2-[(4-{[(5-bromo-4-methyl-2-thienyl)methyl]amino}-1-piperidinyl)methyl]-1,2-dihydro-3H,8H-2a,5,8a-triazaacenaphthylene-3,8-dione] | 0.077 (≈ 0.157 µM) | – | –
Cl.O=c1ccc2ncc(=O)n3c2n1CC3CN1CCC(NCc2ccc(C(F)(F)F)nc2)CC1 (stereo not shown) [Example 20, 2-{[4-({[6-(trifluoromethyl)-3-pyridinyl]methyl}amino)-1-piperidinyl]methyl}-1,2-dihydro-3H,8H-2a,5,8a-triazaacenaphthylene-3,8-dione hydrochloride] | 0.311 | – | –
Cc1cc(CNC2CCN(C[C@@H]3Cn4c(=O)ccc5ccc(=O)n3c54)CC2)ncc1Cl.Cl [Example 7, (1R)-1-[(4-{[(5-chloro-4-methyl-2-pyridinyl)methyl]amino}-1-piperidinyl)methyl]-1,2-dihydro-4H,9H-imidazo[1,2,3-ij]-1,8-naphthyridine-4,9-dione hydrochloride] | 0.3 | – | –
Cc1cc(CNC2CCN(C[C@@H]3Cn4c(=O)ccc5ccc(=O)n3c54)CC2)cnc1C [Example 13, (1R)-1-[(4-{[(5,6-dimethyl-3-pyridinyl)methyl]amino}-1-piperidinyl)methyl]-1,2-dihydro-4H,9H-imidazo[1,2,3-ij]-1,8-naphthyridine-4,9-dione] | 1.05 (≈ 2.5 µM) | > 1 | –
O=c1ccc2ncc(=O)n3c2n1CC3CN1CCC(NCc2ccc(C(F)(F)F)cc2)CC1 (stereo not shown) [Example 28, 2-{[4-({[4-(trifluoromethyl)phenyl]methyl}amino)-1-piperidinyl]methyl}-1,2-dihydro-3H,8H-2a,5,8a-triazaacenaphthylene-3,8-dione] | 0.144 (≈ 0.313 µM) | – | –
Cl.N#Cc1cc(CNC2CCN(C[C@@H]3Cn4c(=O)ccc5ncc(=O)n3c54)CC2)ccc1F [Example 5, 5-{[(1-{[(2R)-3,8-dioxo-1,2-dihydro-3H,8H-2a,5,8a-triazaacenaphthylen-2-yl]methyl}-4-piperidinyl)amino]methyl}-2-fluorobenzonitrile hydrochloride] | 0.11 | – | –
CC(=O)OCc1ccc(CNC2CCN(C[C@@H]3Cn4c(=O)ccc5ccc(=O)n3c54)CC2)cc1Cl [Example 71, (2-chloro-4-{[(1-{[(1R)-4,9-dioxo-1,2-dihydro-4H,9H-imidazo[1,2,3-ij]-1,8-naphthyridin-1-yl]methyl}-4-piperidinyl)amino]methyl}phenyl)methyl acetate] | – | > 1 | –
Cl.O=c1ccc2ccc(=O)n3c2n1C[C@H]3CN1CCC(NCc2ccc(C(F)(F)F)nc2)CC1 [Example 59, (1R)-1-{[4-({[6-(trifluoromethyl)-3-pyridinyl]methyl}amino)-1-piperidinyl]methyl}-1,2-dihydro-4H,9H-imidazo[1,2,3-ij]-1,8-naphthyridine-4,9-dione hydrochloride] | 0.154 | – | –
O=c1ccc2ncc(=O)n3c2n1CC3CN1CCC(NCc2ccc(Cl)c(C(F)(F)F)c2)CC1 (stereo not shown) [Example 16, 2-{[4-({[4-chloro-3-(trifluoromethyl)phenyl]methyl}amino)-1-piperidinyl]methyl}-1,2-dihydro-3H,8H-2a,5,8a-triazaacenaphthylene-3,8-dione] | 0.077 (≈ 0.156 µM) | – | –
